From patent publication US11845807B2, “Method and carrier complexes for delivering molecules to cells” (priority 2003, dated 2023)
“Also recorded” adds a separate entry of the source. Square brackets hold non-standard residues; d marks the D form. Peptide text beside a SMILES is read from it. Dmt = Cc1cc(O)cc(C)c1C[C@H](N)C(=O)O

Legend:
cells in culture = conditions: similar studies, cell line not stated
Caco-2 cells [1] = assay: Assay for peptide uptake in Caco-2 cells; format: cell-based
Text: Assay for Peptide Uptake.

[2] = tested on: Caco-2, SH-SY5Y, HEK293, and CRFK cells; conditions: 250 nM, 1 h at 37° C., acid-wash
Description: Assay for Peptide Uptake. […] Monolayers of cells were grown on 12-well plates (5×10^5 cells/well) coated with collagen for 3 days. […] At the end of the incubation period, cells were washed four times with HBSS, and 0.2 ml of 0.1 N NaOH with 1% SDS was added to each well. The cell contents were then transferred to scintillation vials and radioactivity was counted. […] Before cell lysis, cells were incubated. with 0.2 ml of 0.2 M acetic acid/0.05 M NaCl for 5 min on ice.
An acid-wash step was included to distinguish internalized radioactivity (acid-resistant) from surface-bound radioactivity (acid-sensitive).

N2A cells = assay: Cell viability, MTT assay, N2A cells; format: cell-based; conditions: 1 nM to 10 μM, 24 h
[3] = tested on: cell surface receptors, membranes prepared from Caco-2 cells; assay: Radioligand binding assay using Caco-2 cell membranes; conditions: 15-960 pM radioligand, 60 min at 25° C.; listed as [^3H][Dmt^1]DALDA
Description: Radioligand Binding Assay Using Cell Membranes. […] After 4 days of culture, cells were washed two times with PBS buffer and then scraped off. Cells were centrifuged at 500 g for 5 min and the pellet stored at −80° C. Cells were homogenized in ice-cold 50 mM Tris-HCl buffer (5 μg/ml leupeptin, 2 μg/ml chymostatin, 10 μg/ml bestatin, and 1 mM EGTA, pH 7.4). The homogenate was centrifuged at 36,000 g for 20 min. The pellets were resuspended with 50 mM Tris-HCl buffer. […] Free radioligand was separated from bound radioligand by rapid filtration through GF/B filters (Whatman, Maidstone, UK) with a cell harvester (Brandel Inc., Gaithersburg, Md.). Filters were washed three times with 10 ml of Tris buffer, and radioactivity was determined by liquid scintillation counting. Binding affinities (Kd) and receptor number (Bmax) were determined using nonlinear regression (GraphPad Software, San Diego, Calif.).

Huh7 cells [4] = assay: GFP uptake into cells on co-incubation with peptide or peptide-SMCC conjugate; format: cell-based; conditions: 3 μg GFP + 40 μl peptide, 60 min at 37° C., then 24 hours; versus GFP alone
Description: Carrier complex formation by physical mixing of protein and [Dmt1]DALDA-SMCC conjugate. The [Dmt^1]DALDA-SMCC conjugate was prepared as described above. The protein molecules (i.e. green fluorescent protein, GFP) were mixed with the [Dmt^1]DALDA-SMCC conjugate for 15 min at room temperature before use in cellular uptake studies.
Assay for protein uptake into cells when co-incubated with [Dmt1]DALDA-SMCC conjugate. […] 2 ml of cell medium was then added to cells which were incubated for an additional 24 hours in the cell culture incubator. After incubation, cells were washed four times in cell medium and GFP retained in living cells was visualized, by confocal laser scanning microscopy. Excitation was performed at 340 nm and emission was measured at 520 nm.
2 ml of cell medium was then added to cells and incubated for an additional 24 hours in cell culture incubator. After incubation, cells were washed four times in cell medium and GFP retained in living cells was visualized by confocal laser scanning microscopy. Excitation was performed at […] and emission was measured at […].

[5] = Peptide translocation across Caco-2 monolayers (Transwell, apical-to-basolateral); format: in vitro ADME; conditions: human, Caco-2; apical-to-basolateral; read-out: apparent permeability coefficient
Description: (§1) Assay for Peptide Translocation across Caco-2 Monolayers. Monolayers of Caco-2 cells were prepared as described previously (Irie et al., J. Pharmacol. Exp. Ther. 2001, 298: 711-717), Caco-2 cells (2×10^5) were seeded on microporous membrane filters (24 mm, […]) inside Transwell cell culture chambers (Corning Glassworks, Corning, N.Y.). Each Transwell chamber was filled with 1.5 ml of medium in the apical compartment and 2.5 ml in the basolateral compartment. The cell monolayers were given fresh medium every 1 to 2 days and were used on day 28 for transport experiments.
(§2) The apparent permeability coefficient was calculated according to the following equation: Papp=X/(t·A·Co), where X/t is the rate of uptake in the receiver compartment, A is the diffusion area (4.72 cm^2), and Co is the initial concentration in the donor compartment.

Caco-2 monolayer = assay: as above; format: in vitro ADME; conditions: 60 min
Description: as §1, §2

SH-SY5Y cells = assay: Cell viability, MTT assay, SH-SY5Y cells; format: cell-based; conditions: 1 nM to 10 μM, 24 h
Caco-2 cells [6] = assay: Cell viability, MTT assay, Caco-2 cells; format: cell-based; conditions: 1 nM to 10 μM, 24 h
peptidase = conditions: Szeto et al., J. Pharmacol. Exp. Ther., 2001; cited from earlier work
Caco-2 cells [7] = assay: Assay for peptide efflux from Caco-2 cells; format: cell-based
Description: Assay for Peptide Efflux from CaCo-2 Cells. […] Cells were then washed four times with 1 ml of ice-cold incubation solution to terminate uptake and then incubated with 0.5 ml of MEM for 1 h at either 37 or 4° C. to measure the efflux of peptide from cells to the incubation medium. The amount of radioactivity was determined in cell lysates and in the incubation medium.

Huh7 cells [8] = assay: Cell viability by trypan blue uptake; format: cell-based; conditions: 50 μl of 1 mM conjugate in 1 ml medium, 24 hours at 37° C.
Description: Trypan blue is only taken by cells with increased membrane permeability. Huh7 cells (1×10^6) were washed three times in DMEM, and 1 ml of fresh medium, or media containing 50 μl of 1 mM [Dmt^1]DALDA-SMCC conjugate, [D-Arg-Dmt-Lys-Phe-NH2]-SMCC conjugate, or [Phe^1]DALDA-SMCC conjugate, and incubated at 37° C. for 24 hours at 5% CO2. Cells were then washed three times with DMEM, and 1 ml of 0.4% trypan blue was added to the cells for 2 minutes. Excessive dye was removed by washing cells in cell medium and the cells were examined by light microscopy.

Huh7 cells [9] = assay: RNA uptake into cells when mixed with peptide-SMCC conjugate; format: cell-based; conditions: for increase of uptake of RNA oligo on co-incubation: 11-base RNA oligo
Description: Carrier complex formation by physical mixing of RNA and [Dmt^1]DALDA-SMCC conjugate. The [Dmt^1]DALDA-SMCC conjugate was prepared as described above. The RNA molecules were mixed with the [Dmt^1]DALDA-SMCC conjugate in PBS for 15 min at room temperature before use in cellular uptake studies.
Assay for uptake of RNA uptake into cells when mixed with [Dmt1]DALDA-cross-linker conjugate. Huh7 cells (1×10^6 cells/well) were washed with DMEM and then incubated with 1.0 ml DMEM containing [^32P]RNA oligo alone or with 40 μl [Dmt^1]DALDA-SMCC conjugate, for 60 min at 37° C. or 4° C. Cells were then washed four times in DMEM and one time in sodium acetate solution to reduce nonspecific binding before incubated in lysis buffer for 30 min and radioactivity determined in the cell lysate.
The carrier complex was formed by physical mixing of RNA and [Dmt^1]DALDA-SMCC conjugate. […] A single strand 11-mer [^32P]RNA oligo was mixed with the [Dmt^1]DALDA-SMCC conjugate for 15 min at room temperature before use in cellular uptake studies.
Huh7 cells (1×10^6 cells/well) were washed with DMEM and then incubated with 1.0 ml DMEM containing the [^32P]RNA oligo (100,000 cpm) alone or with […] [Dmt^1]DALDA-SMCC conjugate at 37° C. or 4° C. Cells were then washed four times in DMEM and one time in sodium acetate solution to remove nonspecific binding before incubated in lysis buffer for 30 min and retained radioactivity determined.

Huh7 cells [10] = assay: Assay of apoptosis (Hoechst dye); format: cell-based; conditions: 50 μl of 1 mM conjugate, 24 hours at 37° C., versus PBS control
Description: Assay of apoptosis. Apoptosis was determined with the use of Hoechst dye (Molecular Probes, Eugene, Oreg.) for staining apoptotic nuclei. The Hoechst dye was loaded to cell cultures and incubated for 15 min. Excessive Hoechst dye was removed by washing cells with cell medium. (free of pH indicator) the cells examined using fluorescent microscopy (excitation at 350 nm and emission at 461 nm).
After the incubation, 1 ml of Hoechst dye (Molecular Probes, Eugene, Oreg.) for staining apoptotic nuclei were added to cells and incubated for additional 15 min. Excessive Hoechst dye was removed by washing cells with cell medium (free of pH indicator) and cells treated with [Dmt^1]DALDA-SMCC conjugate were compared with control cells using fluorescent microscopy (excitation at 350 nm and emission at […]). Apoptosis is indicated by concentration of fluorescence in the nuclei.

SMILES: Cc1cc(O)cc(C)c1C[C@H](NC(=O)[C@H](N)CCCNC(=N)N)C(=O)N[C@@H](CCCCN)C(=O)N[C@@H](Cc1ccccc1)C(N)=O [[D-Arg-Dmt-Lys-Phe-NH2], D-Arg-2′6′Dmt-Lys-Phe-NH2] (H-[dR][Dmt]KF-NH2)
- toxicity to cells / cell viability (cells in culture): no effect on cell viability

SMILES: Cc1cc(O)cc(C)c1C[C@H](N)C(=O)N[C@H](CCCNC(=N)N)C(=O)N[C@@H](Cc1ccccc1)C(=O)N[C@@H](CCCCN)C(N)=O [[Dmt^1]DALDA, 2′,6-Dmt-D-Arg-Phe-Lys-NH2]
- concentration dependence of uptake (Caco-2 cells [1]; 1 μM-3 mM, 1 h at 37° C.): concentration-dependent over a wide range of concentrations
- effect of verapamil (P-glycoprotein inhibitor) on cellular uptake (Caco-2 cells [1]; 100 μM verapamil): no effect
- increase of uptake by DEPC (Caco-2 cells [1]; 0.2 mM DEPC): 34 fold
- effect of 4° C. on uptake (Caco-2 cells [1]; 4° C. versus 37° C.): slower compared with 37 °C
- uptake at 4° C. by 45 min (Caco-2 cells [1]; 4° C., 45 min, compared with 37° C.): 76.5%
- uptake at 4° C. by 1 h (Caco-2 cells [1]; 4° C., 1 h, compared with 37° C.): 86,3%
- time at which peptide was first observed in cell lysate (Caco-2 cells [1]; 37° C., 250 nM): 5 min
- fraction resistant to acid-wash (presumed inside the cell) (Caco-2 cells [1]; 1 h at 37° C., acid-wash before lysis): 80.8%
- total amount recovered in cell lysate, of the total drug (Caco-2 cells [1]; after 1-h incubation, 37° C.): about 1%
- effect of pH on uptake (Caco-2 cells [1]; pH varied from 4.0 to 7.4, 1 h at 37° C.): unchanged
- internalization (acid-resistant radioactivity) in different cell lines [2]: taken up extensively in all cell types
- cell viability (MTT assay) (N2A cells): no effect on cell viability; also recorded: not toxic to cells in culture
- specific binding to Caco-2 membranes [3]: No high-affinity specific binding was observed
- uptake of GFP into cells (green fluorescence) (Huh7 cells [4]): moderately increased green fluorescence within the cell cytoplasm
- Papp A→B at 0.2 μM [5]: 12.4 ×10⁻⁶ cm/s
- percentage translocated from the apical to the basolateral side (Caco-2 monolayer): 10.4%
- cell viability (MTT assay) (SH-SY5Y cells): no effect on cell viability
- cell viability (MTT assay) (Caco-2 cells [6]): no effect on cell viability
- resistance against peptidase degradation (peptidase): resistant against peptidase degradation
- effect of verapamil (P-glycoprotein inhibitor) on efflux (Caco-2 cells [7]; 100 μM verapamil): not affected
- effect of DEPC on efflux (Caco-2 cells [7]; 0.2 mM DEPC, 10 min at 25° C. before loading): decreased
- effect of temperature (4° C.) on efflux (Caco-2 cells [7]; 4° C. versus 37° C.): temperature had a significant effect
- peptide effluxed into medium (Caco-2 cells [7]; preloaded 1 h, 1 h efflux at 37° C.): 80%

SMILES: Cc1cc(O)cc(C)c1C[C@H](N)C(=O)N[C@H](CCCNC(=N)N)C(=O)N[C@@H](Cc1ccccc1)C(=O)N[C@@H](CCCCNC(=O)C1CCC(CN2C(=O)C=CC2=O)CC1)C(N)=O (stereo partly drawn) [[Dmt^1]DALDA-SMCC conjugate]
- uptake of GFP into cells (green fluorescence) (Huh7 cells [4]): even greater uptake of GFP; also recorded: enhances uptake of green fluorescent protein
- trypan blue uptake (cell viability) (Huh7 cells [8]): No increase in trypan blue uptake
- increase of uptake of RNA oligo on co-incubation (Huh7 cells [9]; 15 min at 37° C.): 10 fold
- increase of uptake of RNA oligo on co-incubation (Huh7 cells [9]; 60 min at 37° C.): ~20 fold
- increase of uptake of 11-mer RNA on co-incubation (Huh7 cells [9]; FIG. 13 experiment, 60 min at 37° C.): 22 fold
- apoptosis (Hoechst staining of nuclei) (Huh7 cells [10]): did not induce apoptosis; also recorded: does not induce apoptosis
